This is an account of results in US20250326741A1, “GLUCOSE-DEPENDENT INSULINOTROPIC POLYPEPTIDE RECEPTOR ANTAGONISTS AND USES THEREOF” (Pfizer Inc., priority 2024, published 2025).

Each structure is given as a SMILES string.

The target in the first test is T1, human Glucose-dependent Insulinotropic Polypeptide Receptor (hGIPR) (Homo sapiens, UniProt P48546).
T1 sequence (P48546 22-466): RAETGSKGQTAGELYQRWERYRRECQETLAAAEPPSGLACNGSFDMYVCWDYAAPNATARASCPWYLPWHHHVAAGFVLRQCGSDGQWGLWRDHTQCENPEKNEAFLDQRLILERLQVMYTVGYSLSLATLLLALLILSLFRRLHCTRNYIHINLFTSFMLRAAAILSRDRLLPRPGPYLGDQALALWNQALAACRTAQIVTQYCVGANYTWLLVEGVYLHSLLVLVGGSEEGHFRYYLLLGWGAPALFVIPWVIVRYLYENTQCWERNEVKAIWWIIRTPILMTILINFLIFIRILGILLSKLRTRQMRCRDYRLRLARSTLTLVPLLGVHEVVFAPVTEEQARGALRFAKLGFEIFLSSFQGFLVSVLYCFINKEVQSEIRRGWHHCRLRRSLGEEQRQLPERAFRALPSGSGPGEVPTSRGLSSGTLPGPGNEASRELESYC
Description: Functional in vitro GIPR antagonist potency assay (intracellular cAMP, HTRF, hGIP stimulation at EC80). Format: cell-based.
Details: not given
Here is the method: Example AA. Functional In Vitro GIPR Antagonist Potency Assay
The functional in vitro antagonist potency for test compounds was determined by monitoring intracellular cyclic adenosine monophosphate (cAMP) levels in Chinese hamster ovary (CHO)—K1 cells stably expressing the human Glucose-dependent Insulinotropic Polypeptide Receptor (hGIPR). Following agonist activation, hGIPR associates with the G-protein complex causing the Gas subunit to exchange bound guanosine diphosphate (GDP) for guanosine triphosphate (GTP), followed by dissociation of the Gas-GTP complex. The activated Gas subunit can couple to downstream effectors to regulate the levels of second messengers or cAMP within the cell. Thereby, determination of intracellular cAMP levels allows for pharmacological characterization. Intracellular cAMP levels are quantitated using a homogenous assay utilizing the Homogeneous Time Resolved Fluorescence (HTRF) technology from Perkin Elmer. The method is a competitive immunoassay between native cAMP produced by the cells and cAMP labelled with the acceptor dye, d2. The two entities compete for binding to a monoclonal anti-cAMP antibody labeled with cryptate. The specific signal is inversely proportional to the concentration of cAMP in the cells.
Test compounds were solubilized to a concentration of 30 mM in 100% dimethyl sulfoxide (DMSO). An 11-point dilution series using 1 in 3.162-fold serial dilutions was created in 100% DMSO with a top concentration of 8 mM. The serially diluted compound was spotted with an Echo Acoustic liquid handler (Beckman Coulter) into a 384-well assay plate (Corning, Cat No. 3824) at 50 nL/well with duplicate points at each concentration, at a 200× final assay concentration (FAC). The final compound concentration range in the assay was 40 μM to […], with a final DMSO concentration of 0.5%.
Frozen assay-ready vials (at 1×10^7 cells/vial) of CHO-K1 cells stably expressing the Gs-coupled human GIPR receptor (Eurofins, DiscoverX, Cat No. 95-0146C2) were thawed, counted, and resuspended in assay buffer consisting of Hank's Balanced Salt Solution (HBSS, Lonza Cat No. 10-527) containing 20 mM (4-(2-hydroxyethyl)-1-piperazineethanesulfonic acid (HEPES, Lonza, Cat No. 17-737E), 0.1% bovine serum albumin (BSA, Sigma, Cat No. A7979), and 200 μM 3-isobutyl-1-methylxanthine (IBMX, Sigma, Cat No. 15879) at a density of 4×10^5 cells/mL. Cells were added to assay plate (5 μL/well of 4×10^5 cells/mL stock for 2,000 cells/well final) containing 50 nL of 200×FAC test compound, and incubated at 37° C. (95% O2: 5% CO2) for 2 hours, with micro-clime lids (Labcyte, Cat No. LLS-0310). Following the 2-hour cell and compound incubation, a stimulation mix comprised of hGIPR agonist human glucose-dependent insulinotropic polypeptide (hGIP, full length, Sigma Cat No. G2269) in assay buffer/0.1% DMSO was added to the assay plate (5 μL/well) at an estimated EC80 FAC (based on previous hGIP agonist curves) and incubated for another 30 minutes with micro-clime lids at 37° C. (95% O2: 5% CO2), after which intracellular cAMP levels were quantified as per Perkin Elmer's protocol (5 μL of d2 and then 5 μL cryptate, incubated for 1 hour at room temperature). Emission spectra of samples were measured on a Pherastar plate reader (BMG Labtech Inc) using a HTRF protocol (excitation, 320 nm; emission, 665 nm/620 nm).
(95% O2: 5% CO2), with a micro-clime lid. Following the 2-hour cell and DMSO incubation, a hGIP concentration response curve at 2×FAC (12-point curve using 1 in 3 serial dilutions, with triplicate points at each concentration, 100 nM final top concentration) in assay buffer/1% DMSO was added (5 μL/well) and incubated for a further 30 minutes with a micro-clime lid at 37° C. (95% O2: 5% CO2), after which intracellular cAMP levels were quantified and samples measured as described previously. Experiments passed quality control if the agonist concentration used for stimulation fell between the on-the-day EC50-EC90. […]
(Time-resolved FRET reads energy transfer from a long-lived donor to a nearby acceptor.)
As for `CC(C)c1ccc(NC(=O)N2CCC[C@@H]2C(=O)Nc2ccn(-c3ccc(C(=O)O)cn3)n2)cc1F` [Example 3, 6-{3-[(1-{[3-Fluoro-4-(propan-2-yl)phenyl]carbamoyl}-D-prolyl)amino]-1H-pyrazol-1-yl}pyridine-3-carboxylic Acid], the IC50 (usually the concentration at which inhibition is half-maximal) came out at 0.02 µM.

The same test, now with this note: geometric mean; CHO-K1 cells stably expressing human GIPR, cAMP after hGIP stimulation at EC80.
`O=C(O)c1ccc(-n2ccc(NC(=O)[C@H]3CCCN3C(=O)Nc3ccc(C(F)(F)F)cc3)n2)nc1` [Example 27, 6-{3-[(1-{[4-(trifluoromethyl)phenyl]carbamoyl}-D-prolyl)amino]-1H-pyrazol-1-yl}pyridine-3-carboxylic acid] yielded an IC50 of 0.074 µM. This lies in the double-digit nanomolar range. On the same count and under the same terms, the figure for `Cc1cc(-n2ccc(NC(=O)[C@H]3CCCN3C(=O)Nc3ccc(C(F)(F)F)c(C)c3)n2)ccc1C(=O)O` [Example 38, 2-methyl-4-{3-[(1-{[3-methyl-4-(trifluoromethyl)phenyl]carbamoyl}-D-prolyl)amino]-1H-pyrazol-1-yl}benzoic acid] is 0.028 µM. Same read-out and setting: in the case of `Cc1cc(-n2ccc(NC(=O)[C@H]3CCCN3C(=O)Nc3ccc(C4CC4)c(C(F)(F)F)c3)n2)ccc1C(=O)O` [Example 53, 4-{3-[(1-{[4-cyclopropyl-3-(trifluoromethyl)phenyl]carbamoyl}-D-prolyl)amino]-1H-pyrazol-1-yl}-2-methylbenzoic acid] it was 0.013 µM; in that of `Cc1cc(-n2ccc(NC(=O)[C@H]3CCCN3C(=O)Nc3ccc(C(C)C)cc3)n2)ccc1C(=O)O` [Example 29, 2-methyl-4-{3-[(1-{[4-(propan-2-yl)phenyl]carbamoyl}-D-prolyl)amino]-1H-pyrazol-1-yl}benzoic acid], 0.013 µM.

Regarding `Cc1cc(-n2ccc(NC(=O)[C@H]3CCCN3C(=O)Nc3ccc(Cl)c(C(F)(F)F)c3)n2)ccc1C(=O)O` [Example 46, 4-{3-[(1-{[4-chloro-3-(trifluoromethyl)phenyl]carbamoyl}-D-prolyl)amino]-1H-pyrazol-1-yl}-2-methylbenzoic acid], half-maximal inhibition (IC50) required 0.075 µM. Consider `Cc1cc(-n2ccc(NC(=O)[C@H]3CCCN3C(=O)COc3ccc(C(F)(F)F)cc3)n2)ccc1C(=O)O` [Example 17, 2-Methyl-4-{3-[(1-{[4-(trifluoromethyl)phenoxy]acetyl}-D-prolyl)amino]-1H-pyrazol-1-yl}benzoic Acid], for which the IC50 was 0.036 µM. Compound `CC(C)c1ccc(NC(=O)N2CCC[C@@H]2C(=O)Nc2ccn(-c3cc(F)c(O)c(F)c3)n2)cc1` [Example 43] had an IC50 of 0.0053 µM. Against the preceding compound, the IC50 is about 6.8-fold lower. The same measure, in the same setting: in the case of `Cc1cc(-n2ccc(NC(=O)[C@H]3CCCN3C(=O)Nc3ccc(C(C)C)c(C)c3)n2)ccc1C(=O)O` [Example 6, 2-Methyl-4-{3-[(1-{[3-methyl-4-(propan-2-yl)phenyl]carbamoyl}-D-prolyl)amino]-1H-pyrazol-1-yl}benzoic Acid] it was 0.0041 µM. For `CC(C)c1ccc(NC(=O)N2CCC[C@@H]2C(=O)Nc2ccn(-c3ccc(C(N)=O)cc3)n2)cc1F` [Example 57], the half-maximal inhibitory concentration (IC50) came to 0.12 µM.

Compound `Cc1c(C(=O)O)ccc(-n2ccc(NC(=O)[C@H]3CCCN3C(=O)Nc3ccc(C(F)(F)F)cc3)n2)c1F` [Example 66, 3-fluoro-2-methyl-4-{3-[(1-{[4-(trifluoromethyl)phenyl]carbamoyl}-D-prolyl)amino]-1H-pyrazol-1-yl}benzoic acid] displayed an IC50 of 0.054 µM. This IC50 lies about 2.2-fold lower than the previous one. Same read-out and setting: the figure for `Cc1c(C(=O)O)ccc(-n2ccc(NC(=O)[C@H]3CCCN3C(=O)Nc3ccc(OC(F)(F)F)cc3)n2)c1F` [Example 62, 3-fluoro-2-methyl-4-{3-[(1-{[4-(trifluoromethoxy)phenyl]carbamoyl}-D-prolyl)amino]-1H-pyrazol-1-yl}benzoic acid] is 0.0076 µM. On the same count and under the same terms, the figure for `Cc1cc(-n2ccc(NC(=O)[C@H]3CCCN3C(=O)Nc3ccc(OC(F)F)cc3)n2)ccc1C(=O)O` [Example 56, 4-{3-[(1-{[4-(difluoromethoxy)phenyl]carbamoyl}-D-prolyl)amino]-1H-pyrazol-1-yl}-2-methylbenzoic acid] is 0.31 µM.
